How the values were obtained:
Format in all cases: in vivo
[1] = system: Amaranthus retoflexus (AMARE); test: Post-emergence biological efficacy, glasshouse pot test; conditions: Amaranthus retroflexus, 312 h; post-emergence, 1,000 g/ha, evaluated after 13 days (100=total damage; 0=no damage); read-out: Percentage damage caused to weed species, AMARE
Procedure, shortened: (§1)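 Scored 13 days after spraying on a 0 (no damage) to 100 (total damage) scale. Treatment was a post-emergence spray at 1000 or 250 g/ha, from acetone/water 50:50 plus 0.5% Tween 20, onto 8-day-old plants in soil pots. Growth at 24/16° C, 14 h photoperiod, 65% humidity, watered twice daily.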

[2] = system: Echinochloa crus-galli (ECHCG); test: as above; conditions: 312 h, post-emergence, 1,000 g/ha, evaluated after 13 days (100=total damage; 0=no damage), read-out: Percentage damage caused to weed species, ECHCG
Procedure, shortened: as §1

[3] = system: Ipomea hederaceae (IPOHE); test: as above; conditions: Ipomoea hederacea, 312 h; post-emergence, 1,000 g/ha, evaluated after 13 days (100=total damage; 0=no damage); read-out: Percentage damage caused to weed species, IPOHE
Procedure, shortened: as §1

[4] = system: Setaria faberi (SETFA); test: as above; conditions: 312 h, post-emergence, 1,000 g/ha, evaluated after 13 days (100=total damage; 0=no damage), read-out: Percentage damage caused to weed species, SETFA
Procedure, shortened: as §1

[5] = system: Solanum nigrum (SOLNI); test: as above; conditions: 312 h, post-emergence, 1,000 g/ha, evaluated after 13 days (100=total damage; 0=no damage), read-out: Percentage damage caused to weed species, SOLNI
Procedure, shortened: as §1

[6] = system: Alopecurus myosuroides (ALOMY); test: as above; conditions: 312 h, post-emergence, 1,000 g/ha, evaluated after 13 days (100=total damage; 0=no damage), read-out: Percentage damage caused to weed species, ALOMY
Procedure, shortened: as §1

[7] = system: Amaranthus retoflexus (AMARE); test: Pre-emergence biological efficacy, glasshouse pot test; conditions: Amaranthus retroflexus, 312 h; pre-emergence, 1,000 g/ha, evaluated after 13 days (100=total damage; 0=no damage); read-out: Percentage damage AMARE
Procedure, shortened: (§2)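 Sow seeds in pots of standard soil; after one day in the glasshouse, spray test compound (1000 or 250 g/ha) in aqueous acetone/water with 0.5% Tween 20. Grow 13 days at 24/16 °C day/night, then score damage from 0 to 100.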

[8] = system: Echinochloa crus-galli (ECHCG); test: as above; conditions: 312 h, pre-emergence, 1,000 g/ha, evaluated after 13 days (100=total damage; 0=no damage), read-out: Percentage damage ECHCG
Procedure, shortened: as §2

[9] = system: Ipomea hederaceae (IPOHE); test: as above; conditions: Ipomoea hederacea, 312 h; pre-emergence, 1,000 g/ha, evaluated after 13 days (100=total damage; 0=no damage); read-out: Percentage damage IPOHE
Procedure, shortened: as §2

[10] = system: Setaria faberi (SETFA); test: as above; conditions: 312 h, pre-emergence, 1,000 g/ha, evaluated after 13 days (100=total damage; 0=no damage), read-out: Percentage damage SETFA
Procedure, shortened: as §2

[11] = system: Solanum nigrum (SOLNI); test: as above; conditions: 312 h, pre-emergence, 1,000 g/ha, evaluated after 13 days (100=total damage; 0=no damage), read-out: Percentage damage SOLNI
Procedure, shortened: as §2

[12] = system: Alopecurus myosuroides (ALOMY); test: as above; conditions: 312 h, pre-emergence, 1,000 g/ha, evaluated after 13 days (100=total damage; 0=no damage), read-out: Percentage damage ALOMY
Procedure, shortened: as §2

Structure (SMILES) | pest or weed control at 1000 g/ha [1] | pest or weed control at 1000 g/ha [2] | pest or weed control at 1000 g/ha [3] | pest or weed control at 1000 g/ha [4] | pest or weed control at 1000 g/ha [5] | pest or weed control at 1000 g/ha [6] | pest or weed control at 1000 g/ha [7] | pest or weed control at 1000 g/ha [8] | pest or weed control at 1000 g/ha [9] | pest or weed control at 1000 g/ha [10] | pest or weed control at 1000 g/ha [11] | pest or weed control at 1000 g/ha [12]
COC(=O)c1nc(C2CC2)nc(NCc2ccc3c(c2)OCO3)c1Cl [Compound 4-115, 4-(Benzo[1,3]-dioxol-5-ylmethyl-amino)-5-chloro-2-cyclopropyl-6-methoxycarbonyl-pyrimidine] | 100% | 80% | 100% | 90% | 100% | 60% | 100% | 60% | 90% | 60% | 90% | 30%
COC(=O)c1nc(C2CC2)nc(NCc2ccc(Cl)c(OC)c2)c1Cl [Compound 4-116, 5-Chloro-4-(4-chloro-3-methoxy-phenylmethyl-amino)-2-cyclopropyl-6-methoxycarbonyl-pyrimidine] | 100% | 100% | 100% | 90% | 100% | 60% | 100% | 70% | 100% | 80% | 100% | 50%
COC(=O)c1nc(C2CC2)nc(NCc2c(F)ccc(F)c2F)c1Cl [Compound 4-118, 5-Chloro-2-cyclopropyl-6-methoxycarbonyl-4-(2,3,6-trifluoro-phenylmethyl-amino)pyrimidine] | 100% | 80% | 90% | 80% | 80% | 60% | 40% | 50% | 70% | 0% | 40% | 20%
COC(=O)c1nc(C2CC2)nc(NCc2cc(F)c(F)cc2F)c1Cl [Compound 4-120, 5-Chloro-2-cyclopropyl-6-methoxycarbonyl-4-(2,4,5-trifluoro-phenylmethyl-amino)pyrimidine] | 100% | 60% | 100% | 90% | 100% | 20% | 60% | 20% | 40% | 10% | 50% | 10%
COC(=O)c1nc(C2CC2)nc(NCc2c(C)cc(Cl)cc2Cl)c1Cl [Compound 4-121, 5-Chloro-2-cyclopropyl-4-(2,4-dichloro-6-methylphenylmethyl-amino)-6-methoxy-carbonylpyrimidine] | 100% | 60% | 100% | 70% | 90% | 20% | 20% | 0% | 20% | 0% | 0% | 0%
